Experimental data taken from patent US8968794B2, “Antiseptic compositions and uses thereof” (Ramot at Tel-Aviv University Ltd., priority 2009, dated 2015).

Assays:
Test in all cases: Bactericidal activity, log10 CFU/ml after 0, 30 and 60 minutes
Assay type in all cases: cell-based
[1] = tested on: clinical strain of Multi Drug Resistant Acinetobacter baumannii; conditions: baseline 6.4
From the text: (§1) Various bacterial cells lines were obtained from the clinical strains collection of the Laboratory of Molecular Epidemiology and Antimicrobial Resistance, Tel Aviv Sourasky Medical Center. The bactericidal activity of the tested antiseptic combinations was thus tested against Klebsiella pneumoniae, a Methicillin Resistant clinical strain of Staphylococcus aureus (MRSA), a clinical strain of Staphylococcus epidermis, a clinical strain of Extended Spectrum β-lactamase producing Escherichia coli, a clinical strain of Multi Drug Resistant Acinetobacter baumannii, and a clinical strain of Multi Drug Resistant Pseudomonas aeruginosa.
(§2) The bacterial growth protocol was essentially as described above only that bacteria cell lines were grown in BHI growth medium (and following the growth of the cells in the medium, the bacterial suspension was adjusted to 10^7 CFU/ml by dilution with sterile medium). In addition, in these experiments, the static incubation of each bacterial suspension with the silver ion+menthol combination was for 0, 30 and 60 minutes.
(§3) The effect of a combination of 0.01% silver ions and 0.05% menthol (solubilized by 0.5% (v/v) TWEEN 20) on the growth and viability of various types of bacteria was evaluated.
(§4) Cells incubated with NaNO3 0.9% (w/v) solution alone, without the addition of any antiseptic agent, served as control.
(§5) Table 2 presents the log10 CFU/ml calculated for different types of bacterial cell suspensions incubated for 0, 30 and 60 minutes with no antiseptic agent (control) or either 0.01% silver ions (0.01% AgNO3) alone, 0.05% menthol alone or a combination of 0.01% silver ions and 0.05% menthol. A baseline level was defined as the observed bacteria growth at time 0 when no antiseptic agent was added to the bacterial suspension.

[2] = tested on: clinical strain of Extended Spectrum β-lactamase producing Escherichia coli; conditions: baseline 5.9
From the text: as §1, §2, §3, §4, §5

[3] = tested on: clinical strain of Staphylococcus epidermis; conditions: baseline 5.4
From the text: as §1, §2, §3, §4, §5

Klebsiella pneumoniae = conditions: baseline 6.8
From the text: as §1, §2, §3, §4, §5

[4] = tested on: Methicillin Resistant clinical strain of Staphylococcus aureus (MRSA); conditions: baseline 6.1
From the text: as §1, §2, §3, §4, §5

[5] = tested on: clinical strain of Multi Drug Resistant Pseudomonas aeruginosa; conditions: baseline 6.5
From the text: as §1, §2, §3, §4, §5

[6] = tested on: Escherichia coli ATCC 47076; conditions: baseline 7.3
Experimental: A frozen stock of E. coli ATCC 47076 was grown overnight (1 ml in 9 ml LB medium) in a shaker incubator (200 rpm at 37° C.) until the OD600nm of the medium reached 1.6-1.8. […] The Bacterial suspension was adjusted to 10^8 CFU/ml by dilution with sterile medium. The Bacterial cells were then washed three times with 0.9% NaNO3. The NaNo3 washing cycles was performed by transferring 5 ml of the bacterial suspensions into 15 ml test tubes and subjecting the suspension to centrifugation at 4000 rpm at 4° C. for 5 minutes, followed by removal of the supernatant and re-suspension of the bacterial cell pellet in 5 ml of 0.9% NaNO3. The bactericidal activity of various concentration combinations of silver ions (from AgNO3) and menthol (solubilized by the addition of 0.5% TWEEN 20) was then assessed by adding 5 ml of the tested combinations to the bacterial cell pellets prepared as described hereinbelow and re-suspending the cell pellets by vortex. A test tube containing only 0.9% NaNO3 served as control. The bacterial suspensions thus obtained were transferred to sterile glass tubes to reduce potential cell adsorption to the walls, and kept covered at 37° C. throughout the testing period. Following 5 minutes of static incubation, 100 μl samples of the treated bacterial suspension were removed, and […] decimal dilutions in NaNO3 0.9% of the suspension were dropped onto LB agar plates. The level of bacterial proliferation was assessed by counting the number of colonies that grew on the plates and calculating the CFU/ml and log10 CFU/ml following 18 hours of incubation at 37° C. Higher log10 CFU/ml calculated for a bacterial suspension, incubated with a specific combination, is indicative of a lower level of bactericidal activity of that combination. The bacterial growth protocol was essentially as described above only that bacteria cell lines were grown in BHI growth medium (and following the growth of the cells in the medium, the bacterial suspension was adjusted to 10^7 CFU/ml by dilution with sterile medium). In addition, in these experiments, the static incubation of each bacterial suspension with the silver ion+menthol combination was for 0, 30 and 60 minutes. […] Cells incubated with NaNO3 0.9% (w/v) solution alone, without the addition of any antiseptic agent, served as control. […] S. Block, Editor. 2000, Lippincott Williams and Wilkins, pp 1305-1328. […] A baseline level was defined as the observed bacteria growth at time 0 when no antiseptic agent was added to the bacterial suspension.

SMILES: O=[N+]([O-])[O-].[Ag+] [0.01% AgNO3, silver nitrate]
- log10 CFU/ml of bacteria ([1]; treated for 0 minutes): 6.3 log10 CFU/ml
- log10 CFU/ml of bacteria ([1]; treated for 30 minutes): 0 log10 CFU/ml
- log10 CFU/ml of bacteria ([1]; treated for 60 minutes): 0 log10 CFU/ml
- log10 CFU/ml of bacteria ([2]; treated for 0 minutes): 4.8 log10 CFU/ml
- log10 CFU/ml of bacteria ([2]; treated for 30 minutes): 0 log10 CFU/ml
- log10 CFU/ml of bacteria ([2]; treated for 60 minutes): 0 log10 CFU/ml
- log10 CFU/ml of bacteria ([3]; treated for 0 minutes): 0 log10 CFU/ml
- log10 CFU/ml of bacteria ([3]; treated for 30 minutes): 0 log10 CFU/ml
- log10 CFU/ml of bacteria ([3]; treated for 60 minutes): 0 log10 CFU/ml
- log10 CFU/ml of bacteria (Klebsiella pneumoniae; treated for 0 minutes): 0 log10 CFU/ml
- log10 CFU/ml of bacteria (Klebsiella pneumoniae; treated for 30 minutes): 0 log10 CFU/ml
- log10 CFU/ml of bacteria (Klebsiella pneumoniae; treated for 60 minutes): 0 log10 CFU/ml
- log10 CFU/ml of bacteria ([4]; treated for 0 minutes): 5.4 log10 CFU/ml
- log10 CFU/ml of bacteria ([4]; treated for 30 minutes): 0 log10 CFU/ml
- log10 CFU/ml of bacteria ([4]; treated for 60 minutes): 0 log10 CFU/ml
- log10 CFU/ml of bacteria ([5]; treated for 0 minutes): 5.1 log10 CFU/ml
- log10 CFU/ml of bacteria ([5]; treated for 30 minutes): 0 log10 CFU/ml
- log10 CFU/ml of bacteria ([5]; treated for 60 minutes): 0 log10 CFU/ml
- log10 CFU/ml of bacteria ([6]; treated for 0 minutes): 6.4 log10 CFU/ml
- log10 CFU/ml of bacteria ([6]; treated for 30 minutes): 0 log10 CFU/ml
- log10 CFU/ml of bacteria ([6]; treated for 60 minutes): 0 log10 CFU/ml

SMILES: CC(C)[C@H]1CC[C@@H](C)C[C@@H]1O [0.05% Menthol, 5-methyl-2-propan-2-yl-cyclohexan-1-ol]
- log10 CFU/ml of bacteria ([1]; treated for 0 minutes): 6.4 log10 CFU/ml
- log10 CFU/ml of bacteria ([1]; treated for 30 minutes): 6.3 log10 CFU/ml
- log10 CFU/ml of bacteria ([1]; treated for 60 minutes): 6.2 log10 CFU/ml
- log10 CFU/ml of bacteria ([2]; treated for 0 minutes): 4.9 log10 CFU/ml
- log10 CFU/ml of bacteria ([2]; treated for 30 minutes): 4.9 log10 CFU/ml
- log10 CFU/ml of bacteria ([2]; treated for 60 minutes): 4.9 log10 CFU/ml
- log10 CFU/ml of bacteria ([3]; treated for 0 minutes): 5.4 log10 CFU/ml
- log10 CFU/ml of bacteria ([3]; treated for 30 minutes): 5.4 log10 CFU/ml
- log10 CFU/ml of bacteria ([3]; treated for 60 minutes): 5.3 log10 CFU/ml
- log10 CFU/ml of bacteria (Klebsiella pneumoniae; treated for 0 minutes): 6.2 log10 CFU/ml
- log10 CFU/ml of bacteria (Klebsiella pneumoniae; treated for 30 minutes): 4.9 log10 CFU/ml
- log10 CFU/ml of bacteria (Klebsiella pneumoniae; treated for 60 minutes): 3.8 log10 CFU/ml
- log10 CFU/ml of bacteria ([4]; treated for 0 minutes): 6.3 log10 CFU/ml
- log10 CFU/ml of bacteria ([4]; treated for 30 minutes): 6.3 log10 CFU/ml
- log10 CFU/ml of bacteria ([4]; treated for 60 minutes): 6.2 log10 CFU/ml
- log10 CFU/ml of bacteria ([5]; treated for 0 minutes): 5.8 log10 CFU/ml
- log10 CFU/ml of bacteria ([5]; treated for 30 minutes): 3.5 log10 CFU/ml
- log10 CFU/ml of bacteria ([5]; treated for 60 minutes): 2.5 log10 CFU/ml
- log10 CFU/ml of bacteria ([6]; treated for 0 minutes): 5.3 log10 CFU/ml
- log10 CFU/ml of bacteria ([6]; treated for 30 minutes): 0 log10 CFU/ml
- log10 CFU/ml of bacteria ([6]; treated for 60 minutes): 0 log10 CFU/ml
